Experimental data: ChEMBL document CHEMBL1135010, “Synthetic studies of cis-4-Amino-L-proline derivatives as novel lipid lowering agents” (2002)
Calls of active or inactive are those of the source. No cut-off for these calls is given here.

Assays:
[1] = Screening was performed to determine its plasma triglyceride lowering activity on administration of 10 mg/kg/day dose for 6 days on inbreed colony of Swiss Albino Mice; type: functional, Mus musculus
[2] = tested on: Mus musculus; test: Screening was performed to determine its plasma triglyceride lowering activity on administration of 10 mg/kg/day on inbreed colony of Swiss Albino Mice; No significant reduction; type: functional, organism-based
[3] = Screening was performed to determine its plasma triglyceride lowering activity on administration of 30 mg/kg/day dose for 6 days on inbreed colony of Swiss Albino Mice; type: functional, Mus musculus

With `CCc1nc2ccccc2c(=O)n1CC(=O)N[C@H]1C[C@@H](C(=O)O)N(C(=O)OC(C)(C)C)C1` the Lowering activity [1] was 30%.

For `CC(C)OC(=O)C(C)(C)Oc1ccc(C(=O)c2ccc(Cl)cc2)cc1` [FENOFIBRATE], the Lowering activity [2] was “inactive” and the Lowering activity [3] was 36%.

For `CCCc1nn(C)c2c(=O)n(CC(=O)N[C@H]3C[C@@H](C(=O)OCC)N(C(=O)OC(C)(C)C)C3)c(CC)nc12`, the Lowering activity [1] was 40%.
